The data set relates to CCRIS mutagenicity, Ames/micronucleus/aberration tests. Nature of the data set: CCRIS mutagenicity studies.
Where [1] appears, read: Test System: AMES SALMONELLA TYPHIMURIUM, Strain/Indicator: TA98, Metabolic Activation: NONE, Method: PREINCUBATION
The mark [2] stands for this setting: Test System: AMES SALMONELLA TYPHIMURIUM, Strain/Indicator: TA100, Metabolic Activation: NONE, Method: PREINCUBATION
[3] abbreviates: Test System: AMES SALMONELLA TYPHIMURIUM, Strain/Indicator: TA100, Metabolic Activation: NONE, Method: STANDARD PLATE.

Each structure is given as a SMILES string. Calls of active or inactive are those of the source. The rule behind the calls is not given here.

These results are taken from PubChem BioAssay AID1259407 (Chemical Carcinogenesis Research Information System (CCRIS), 2018).

On to `Oc1ccccc1-c1ccccc1`, for which the mutagenic call is, setting by setting: (Test System: AMES SALMONELLA TYPHIMURIUM, Strain/Indicator: TA98, Metabolic Activation: HAMSTER, LIVER, S-9, AROCLOR 1254 (10%), Method: STANDARD PLATE) “inactive; negative”; (Test System: AMES SALMONELLA TYPHIMURIUM, Strain/Indicator: TA98, Metabolic Activation: HAMSTER, LIVER, S-9, AROCLOR 1254, Method: PREINCUBATION) “inactive; negative”; (Test System: AMES SALMONELLA TYPHIMURIUM, Strain/Indicator: TA98, Metabolic Activation: NONE, Method: HOST-MEDIATED) “inactive; negative”; under setting [1], “inactive; negative”; (Test System: AMES SALMONELLA TYPHIMURIUM, Strain/Indicator: TA98, Metabolic Activation: NONE, Method: STANDARD PLATE) “inactive; negative”; (Test System: AMES SALMONELLA TYPHIMURIUM, Strain/Indicator: TA98, Metabolic Activation: RAT, LIVER, S-9, AROCLOR 1254 (10%), Method: STANDARD PLATE) “inactive; negative”. For the same molecule, the mutagenic call was “inactive; negative” (Test System: AMES SALMONELLA TYPHIMURIUM, Strain/Indicator: TA98, Metabolic Activation: RAT, LIVER, S-9, AROCLOR 1254, Method: PREINCUBATION); “inactive; negative” (Test System: AMES SALMONELLA TYPHIMURIUM, Strain/Indicator: TA100, Metabolic Activation: HAMSTER, LIVER, S-9, AROCLOR 1254 (10%), Method: STANDARD PLATE); “inactive; negative” (Test System: AMES SALMONELLA TYPHIMURIUM, Strain/Indicator: TA100, Metabolic Activation: HAMSTER, LIVER, S-9, AROCLOR 1254, Method: PREINCUBATION); “inactive; negative” (Test System: AMES SALMONELLA TYPHIMURIUM, Strain/Indicator: TA100, Metabolic Activation: NONE, Method: HOST-MEDIATED); “inactive; negative” under setting [2]; “inactive; negative” under setting [3]. For the same molecule, the mutagenic call is “inactive; negative” (Test System: AMES SALMONELLA TYPHIMURIUM, Strain/Indicator: TA100, Metabolic Activation: RAT, LIVER, S-9, AROCLOR 1254 (10%), Method: STANDARD PLATE); “inactive; negative” (Test System: AMES SALMONELLA TYPHIMURIUM, Strain/Indicator: TA100, Metabolic Activation: RAT, LIVER, S-9, AROCLOR 1254, Method: PREINCUBATION); “inactive; negative” (Test System: AMES SALMONELLA TYPHIMURIUM, Strain/Indicator: TA1535, Metabolic Activation: HAMSTER, LIVER, S-9, AROCLOR 1254 (10%), Method: STANDARD PLATE); “inactive; negative” (Test System: AMES SALMONELLA TYPHIMURIUM, Strain/Indicator: TA1535, Metabolic Activation: HAMSTER, LIVER, S-9, AROCLOR 1254, Method: PREINCUBATION); “active; positive” (Test System: AMES SALMONELLA TYPHIMURIUM, Strain/Indicator: TA1535, Metabolic Activation: NONE, Method: PREINCUBATION); “inactive; negative” (Test System: AMES SALMONELLA TYPHIMURIUM, Strain/Indicator: TA1535, Metabolic Activation: NONE, Method: STANDARD PLATE). Also, the mutagenic call is “inactive; negative” (Test System: AMES SALMONELLA TYPHIMURIUM, Strain/Indicator: TA1535, Metabolic Activation: RAT, LIVER, S-9, AROCLOR 1254 (10%), Method: STANDARD PLATE); “inactive; negative” (Test System: AMES SALMONELLA TYPHIMURIUM, Strain/Indicator: TA1535, Metabolic Activation: RAT, LIVER, S-9, AROCLOR 1254, Method: PREINCUBATION); “inactive; negative” (Test System: AMES SALMONELLA TYPHIMURIUM, Strain/Indicator: TA1537, Metabolic Activation: HAMSTER, LIVER, S-9, AROCLOR 1254 (10%), Method: STANDARD PLATE); “inactive; negative” (Test System: AMES SALMONELLA TYPHIMURIUM, Strain/Indicator: TA1537, Metabolic Activation: HAMSTER, LIVER, S-9, AROCLOR 1254, Method: PREINCUBATION); “inactive; negative” (Test System: AMES SALMONELLA TYPHIMURIUM, Strain/Indicator: TA1537, Metabolic Activation: NONE, Method: PREINCUBATION); “inactive; negative” (Test System: AMES SALMONELLA TYPHIMURIUM, Strain/Indicator: TA1537, Metabolic Activation: NONE, Method: STANDARD PLATE). The mutagenic call is, setting by setting: (Test System: AMES SALMONELLA TYPHIMURIUM, Strain/Indicator: TA1537, Metabolic Activation: RAT, LIVER, S-9, AROCLOR 1254 (10%), Method: STANDARD PLATE) “inactive; negative”; (Test System: AMES SALMONELLA TYPHIMURIUM, Strain/Indicator: TA1537, Metabolic Activation: RAT, LIVER, S-9, AROCLOR 1254, Method: PREINCUBATION) “inactive; negative”; (Test System: AMES SALMONELLA TYPHIMURIUM, Strain/Indicator: TA1538, Metabolic Activation: HAMSTER, LIVER, S-9, AROCLOR 1254 (10%), Method: STANDARD PLATE) “inactive; negative”; (Test System: AMES SALMONELLA TYPHIMURIUM, Strain/Indicator: TA1538, Metabolic Activation: NONE, Method: STANDARD PLATE) “inactive; negative”; (Test System: AMES SALMONELLA TYPHIMURIUM, Strain/Indicator: TA1538, Metabolic Activation: RAT, LIVER, S-9, AROCLOR 1254 (10%), Method: STANDARD PLATE) “inactive; negative”; (Test System: CHO/HGPRT, Strain/Indicator: CHO/GIEMSA, Metabolic Activation: NONE, Method: STANDARD PLATE) “active; positive”. Also, the mutagenic call is “inactive; negative” (Test System: CHO/HGPRT, Strain/Indicator: CHO/GIEMSA, Metabolic Activation: RAT, LIVER, S-9, AROCLOR 1254, Method: STANDARD PLATE); “inactive; negative” (Test System: E. COLI, Strain/Indicator: WP2, Metabolic Activation: NONE, Method: HOST-MEDIATED); “inactive; negative” (Test System: Mouse lymphoma, Strain/Indicator: L5178Y (tk+/tk-), Metabolic Activation: None, Method: Suspension/plate); “active; equivocal (previously evaluated positive)” (Test System: Mouse lymphoma, Strain/Indicator: L5178Y (tk+/tk-), Metabolic Activation: Rat, Liver, S-9, Aroclor 1254, Method: Suspension/plate).
For `Cc1cn(CC(O)CN=[N+]=[N-])c(=O)[nH]c1=O` (configuration not stated), the mutagenic call under setting [3] was “active; positive”.
For the molecule `CCC(Cl)[N+](=O)[O-]` (configuration not stated), the mutagenic call (Test System: AMES SALMONELLA TYPHIMURIUM, Strain/Indicator: TA98, Metabolic Activation: HAMSTER, LIVER, S-9, AROCLOR 1254 (30%), Method: PREINCUBATION) was “active; positive”; the mutagenic call under setting [1] was “active; positive”; the mutagenic call (Test System: AMES SALMONELLA TYPHIMURIUM, Strain/Indicator: TA98, Metabolic Activation: RAT, LIVER, S-9, AROCLOR 1254 (30%), Method: PREINCUBATION) was “active; positive”; the mutagenic call (Test System: AMES SALMONELLA TYPHIMURIUM, Strain/Indicator: TA100, Metabolic Activation: HAMSTER, LIVER, S-9, AROCLOR 1254 (30%), Method: PREINCUBATION) was “active; positive”; the mutagenic call under setting [2] is “active; positive”; the mutagenic call (Test System: AMES SALMONELLA TYPHIMURIUM, Strain/Indicator: TA100, Metabolic Activation: RAT, LIVER, S-9, AROCLOR 1254 (30%), Method: PREINCUBATION) was “active; positive”.
Regarding `Oc1cccc2ncccc12`, the mutagenic call is “inactive; negative” under setting [1]; “active; positive” (Test System: AMES SALMONELLA TYPHIMURIUM, Strain/Indicator: TA98, Metabolic Activation: RAT, LIVER, S-9, Method: PREINCUBATION); “inactive; negative” under setting [2]; “inactive; negative” under setting [3]; “active; positive” (Test System: AMES SALMONELLA TYPHIMURIUM, Strain/Indicator: TA100, Metabolic Activation: RAT, LIVER, S-9, AROCLOR 1254 (10% OR 20%), Method: STANDARD PLATE); “active; positive” (Test System: AMES SALMONELLA TYPHIMURIUM, Strain/Indicator: TA100, Metabolic Activation: RAT, LIVER, S-9, Method: PREINCUBATION).
